Patent US9249125B2, “Pyrazole derivatives as p38 MAP inhibitors” (RESPIVERT LIMITED, priority 2012, dated 2016)

Key:
p38 MAPKα = p38 MAPKα (Homo sapiens (Human), UniProt Q16539); assay: p38 MAPKα enzyme inhibition (FRET, Z-LYTE); format: biochemical
Experimental: (§1) The enzyme inhibitory activities of compounds disclosed herein are determined by FRET using synthetic peptides labelled with both donor and acceptor fluorophores (Z-LYTE, Invitrogen Ltd., Paisley, UK).
The inhibitory activities of test compounds against the p38 MAPKα isoform (MAPK14: Invitrogen), are evaluated indirectly by determining the level of activation/phosphorylation of the down-stream molecule, MAPKAP-K2. The p38 MAPKα protein (80 ng/mL, 2.5 μL) is mixed with the test compound (2.5 μL of either 4 μg/mL, 0.4 μg/mL, 0.04 μg/mL or 0.004 μg/mL) for 2 hr at RT. […] The mixture is incubated for 1 hr at RT. Development reagent (protease, 5 μL) is added for 1 hr prior to detection in a fluorescence microplate reader (Varioskan® Flash, ThermoFisher Scientific).
(§2) In all cases, the site-specific protease cleaves non-phosphorylated peptide only and eliminates the FRET signal. Phosphorylation levels of each reaction are calculated using the ratio of coumarin emission (donor) over fluorescein emission (acceptor), for which low ratios indicate high phosphorylation and high ratios indicate low phosphorylation levels.

cSrc = cSrc (Homo sapiens (Human), UniProt P12931); assay: c-Src enzyme inhibition (FRET, Z-LYTE); format: biochemical
Experimental: as §1
(§3) The relevant enzyme (3000 ng/mL or 2000 ng/mL respectively, 2.5 μL) is incubated with the test compound (either 4 μg/mL, 0.4 μg/mL, 0.04 μg/mL, or 0.004 μg/mL, 2.5 μL each) for 2 hr at RT. The FRET peptides (8 μM, 2.5 μL), and appropriate ATP solutions (2.5 μL, 800 μM for c-Src, and 60 μM ATP for Syk) are then added to the enzymes/compound mixtures and incubated for 1 hr. Development reagent (protease, 5 μL) is added for 1 hr prior to detection in a fluorescence microplate reader (Varioskan® Flash, ThermoFisher Scientific).
as §2

Syk = Syk (Homo sapiens (Human), UniProt P43405); assay: Syk enzyme inhibition (FRET, Z-LYTE); format: biochemical
Experimental: as §1, §3, §2

GSK3α = GSK3α (Homo sapiens (Human), UniProt P49840); assay: GSK 3α enzyme inhibition (FRET, Z-LYTE); format: biochemical
Experimental: as §1
The inhibitory activities of compounds of the invention against the GSK 3α enzyme isoform (Invitrogen), are evaluated by determining the level of activation/phosphorylation of the target peptide. The GSK3-α protein (500 ng/mL, 2.5 μL) is mixed with the test compound (2.5 μL at either 4 μg/mL, 0.4 μg/mL, 0.04 μg/mL, or 0.004 μg/mL) for 2 hr at RT. The FRET peptide (8 μM, 2.5 μL), which is a phosphorylation target for GSK3α, and ATP (40 μM, 2.5 μL) are then added to the enzyme/compound mixture and the resulting mixture incubated for 1 hr. Development reagent (protease, 5 μL) is added for 1 hr prior to detection in a fluorescence microplate reader (Varioskan® Flash, ThermoFisher Scientific).
as §2

[1] = tested on: LPS-induced TNFα release in d-U937 cells; assay: LPS-induced TNFα release in d-U937 cells; format: cell-based; conditions: Homo sapiens, dU937, relative to 10 μg/mL BIRB796, read-out: LPS Induced Release of Cytokine in d-937 Cells TNFα REC50
Experimental: (§4) U937 cells, a human monocytic cell line, are differentiated into macrophage-type cells by incubation with PMA (100 ng/mL) for 48 to 72 hr. Cells are pre-incubated with final concentrations of test compound for 2 hr and are then stimulated with LPS (0.1 μg/mL) (from E. coli: O111:B4, Sigma) for 4 hr. The supernatant is collected for determination of TNFα and IL-8 concentrations by sandwich ELISA (Duo-set, R&D systems). […] The relative 50% effective concentration (REC50) is determined from the resultant concentration-response curve. The inhibition of IL-8 production is calculated at each concentration of test compound by comparison with vehicle control. […] (b) LPS-Induced TNFα/IL-8 Release in PBMC Cells

[2] = tested on: LPS-induced IL-8 release in d-U937 cells; assay: LPS-induced IL-8 release in d-U937 cells; format: cell-based; conditions: Homo sapiens, dU937, read-out: LPS Induced Release of Cytokine in d-937 Cells IL-8 IC50
Experimental: as §4

[3] = tested on: Poly I:C-induced ICAM-1 expression in BEAS2B cells; assay: Poly I:C-induced ICAM-1 expression in BEAS2B cells; format: cell-based; conditions: Homo sapiens, BEAS-2B, read-out: Poly IC induced ICAM1 in BEAS2B IC50
Experimental: Poly I:C is used in these studies as a simple, RNA virus mimic. Poly I:C-Oligofectamine mixture (1 μg/mL Poly I:C, ±2% Oligofectamine, 25 uL) (Invivogen Ltd., San Diego, Calif., and Invitrogen, Carlsbad, Calif., respectively) is transfected into BEAS2B cells (human bronchial epithelial cells, ATCC). Cells are pre-incubated with final concentrations of test compounds for 2 hr and the level of ICAM1 expression on the cell surface is determined by cell-based ELISA. At a time point 18 hr after poly I:C transfection, cells are fixed with 4% formaldehyde in PBS (100 μL) and then endogenous peroxidase is quenched by the addition of washing buffer (100 μL, 0.05% Tween in PBS: PBS-Tween) containing 0.1% sodium azide and 1% hydrogen peroxide. Cells are washed with wash-buffer (3×200 μL). and after blocking the wells with 5% milk in PBS-Tween (100 μL) for 1 hr, the cells are incubated with anti-human ICAM-1 antibody (50 μL) (Cell Signaling Technology, Danvers, Mass.) in 1% BSA PBS overnight at 4° C.
The cells are washed with PBS-Tween (3×200 μL) and incubated with the secondary antibody (100 μL) (HRP-conjugated anti-rabbit IgG, Dako Ltd., Glostrup, Denmark). The cells are then incubated with of substrate (50 μL) for 2-20 min, followed by the addition of stop solution (50 μL, 1N H2SO4). The ICAM-1 signal is detected by reading and reading the absorbance at 450 nm against a reference wavelength of 655 nm using a spectrophotometer. The cells are then washed with PBS-Tween (3×200 μL) and total cell numbers in each well are determined by reading absorbance at 595 nm after Crystal Violet staining (50 μL of a 2% solution in PBS) and elution by 1% SDS solution (100 μL) in distilled water. The measured OD 450-655 readings are corrected for cell number by dividing with the OD595 reading in each well.

d-U937 cells = assay: Cell viability: MTT assay; format: cell-based, human; conditions: 1 μg/mL
Experimental: Differentiated U937 cells are pre-incubated with each test compound (final concentration 1 μg/mL or 10 μg/mL in 200 μL media indicated below) under two protocols: the first for 4 hr in 5% FCS RPMI1640 media and the second in 10% FCS RPMI1640 media for 24 h. The supernatant is replaced with new media (200 μL) and MTT stock solution (10 μL, 5 mg/mL) is added to each well. After incubation for 1 hr the media are removed, DMSO (200 μL) is added to each well and the plates are shaken lightly for 1 hr prior to reading the absorbance at 550 nm. The percentage loss of cell viability is calculated for each well relative to vehicle (0.5% DMSO) treatment. Consequently an apparent increase in cell viability for drug treatment relative to vehicle is tabulated as a negative percentage.

Sequence of cSrc (P12931 whole entry, looked up): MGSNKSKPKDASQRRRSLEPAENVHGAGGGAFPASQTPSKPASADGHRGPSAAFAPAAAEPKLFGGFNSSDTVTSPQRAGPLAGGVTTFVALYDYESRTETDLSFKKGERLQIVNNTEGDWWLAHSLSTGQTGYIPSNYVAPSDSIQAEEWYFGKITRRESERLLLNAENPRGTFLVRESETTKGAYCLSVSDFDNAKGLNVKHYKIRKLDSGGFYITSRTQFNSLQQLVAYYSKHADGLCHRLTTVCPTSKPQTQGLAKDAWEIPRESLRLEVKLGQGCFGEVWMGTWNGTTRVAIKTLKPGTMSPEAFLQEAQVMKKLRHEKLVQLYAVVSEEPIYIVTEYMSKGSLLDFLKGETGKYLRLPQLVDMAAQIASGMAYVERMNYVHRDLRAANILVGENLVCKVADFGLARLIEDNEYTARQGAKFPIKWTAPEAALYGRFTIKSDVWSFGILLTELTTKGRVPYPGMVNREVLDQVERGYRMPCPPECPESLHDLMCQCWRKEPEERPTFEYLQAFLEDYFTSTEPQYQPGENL
Sequence of p38 MAPKα (Q16539 whole entry): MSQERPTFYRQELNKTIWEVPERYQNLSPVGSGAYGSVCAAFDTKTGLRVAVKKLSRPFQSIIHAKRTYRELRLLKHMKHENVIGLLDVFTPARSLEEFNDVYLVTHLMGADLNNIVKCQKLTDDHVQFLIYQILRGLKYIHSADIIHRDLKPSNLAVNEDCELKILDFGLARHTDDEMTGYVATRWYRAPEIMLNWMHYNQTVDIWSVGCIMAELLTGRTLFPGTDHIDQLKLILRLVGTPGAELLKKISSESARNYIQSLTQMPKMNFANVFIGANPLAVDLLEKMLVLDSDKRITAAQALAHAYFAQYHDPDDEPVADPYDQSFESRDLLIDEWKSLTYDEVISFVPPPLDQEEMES
Sequence of GSK3α (P49840 whole entry): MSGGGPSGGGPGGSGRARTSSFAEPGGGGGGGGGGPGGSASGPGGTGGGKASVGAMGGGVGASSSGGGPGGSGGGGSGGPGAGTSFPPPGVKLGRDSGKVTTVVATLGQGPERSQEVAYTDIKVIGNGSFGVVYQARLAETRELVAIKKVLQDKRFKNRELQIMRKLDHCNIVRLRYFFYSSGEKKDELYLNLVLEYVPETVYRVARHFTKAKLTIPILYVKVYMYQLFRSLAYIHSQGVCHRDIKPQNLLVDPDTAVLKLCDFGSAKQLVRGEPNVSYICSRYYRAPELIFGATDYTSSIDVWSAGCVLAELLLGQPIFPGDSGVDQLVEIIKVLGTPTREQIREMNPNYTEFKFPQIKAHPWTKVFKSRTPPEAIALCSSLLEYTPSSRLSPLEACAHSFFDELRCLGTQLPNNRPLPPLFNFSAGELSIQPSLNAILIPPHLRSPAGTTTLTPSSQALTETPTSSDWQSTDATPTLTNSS

IC50 (p38 MAPKα) [nM] | IC50 (cSrc) [nM] | IC50 (Syk) [nM] | IC50 (GSK3α) [nM] | EC50 [1] [nM] | IC50 [2] [nM] | SMILES | IC50 [3] [nM] | MTT Assay Cell viability at time point in d-U937 cells 4 h (d-U937 cells) | MTT Assay Cell viability at time point in d-U937 cells 24 h (d-U937 cells)
18 | 3 | 5 | 1280 | 0.4 | 3.4 | CC(C)c1cc(NC(=O)Nc2ccc(Oc3ccnc(Nc4ccc5[nH]ncc5c4)n3)c3ccccc23)n(-c2ccc(OCCN3CCOCC3)cc2)n1 [Example 69, 1-(4-((2-((1H-indazol-5-yl)amino)pyrimidin-4-yl)oxy)naphthalen-1-yl)-3-(3-isopropyl-1-(4-(2-morpholinoethoxy)phenyl)-1H-pyrazol-5-yl)urea] | 8.1 | −ve (−ve and +ve indicate that the value is below and above respectively, the no significant effect threshold, defined as 30% inhibition at 1 μg/mL at the time point indicated.) | −ve (−ve and +ve indicate that the value is below and above respectively, the no significant effect threshold, defined as 30% inhibition at 1 μg/mL at the time point indicated.)
417 | 27 | 93 | 2290 | 3.5 | 3.1 | CC(C)(C)c1cc(NC(=O)Nc2ccc(Oc3ccnc(Nc4ccc5[nH]c(=O)oc5c4)n3)c3ccccc23)n(-c2ccc(OCCN3CCOCC3)cc2)n1 [Example 77, 1-(3-(tert-butyl)-1-(4-(2-morpholinoethoxy)phenyl)-1H-pyrazol-5-yl)-3-(4-((2-((2-oxo-2,3-dihydrobenzo[d]oxazol-6-yl)amino)pyrimidin-4-yl)oxy)naphthalen-1-yl)urea] | 8.6 | −ve (−ve and +ve indicate that the value is below and above respectively, the no significant effect threshold, defined as 30% inhibition at 1 μg/mL at the time point indicated.) | −ve (−ve and +ve indicate that the value is below and above respectively, the no significant effect threshold, defined as 30% inhibition at 1 μg/mL at the time point indicated.)
17 | 5 | 3 | 407 | 0.9 | 1.6 | COc1ccc(-n2nc(C(C)(C)C)cc2NC(=O)Nc2ccc(Oc3ccnc(Nc4ccc5[nH]nc(OCCN6CCOCC6)c5c4)n3)c3ccccc23)cc1 [Example 45, 1-(3-(tert-butyl)-1-(4-methoxyphenyl)-1H-pyrazol-5-yl)-3-(4-((2-((3-(2-morpholinoethoxy)-1H-indazol-5-yl)amino)pyrimidin-4-yl)oxy)naphthalen-1-yl)urea] | 1.2 | −ve (−ve and +ve indicate that the value is below and above respectively, the no significant effect threshold, defined as 30% inhibition at 1 μg/mL at the time point indicated.) | −ve (−ve and +ve indicate that the value is below and above respectively, the no significant effect threshold, defined as 30% inhibition at 1 μg/mL at the time point indicated.)
7 | < 1 | 16 | 827 | 2.2 | 4.1 | CC(C)(C)c1cc(NC(=O)Nc2ccc(Oc3ccnc(Nc4ccc5[nH]ncc5c4)n3)c3ccccc23)n(-c2ccc(=O)n(CCO)c2)n1 [Example 86, 1-(4-((2-((1H-indazol-5-yl)amino)pyrimidin-4-yl)oxy)naphthalen-1-yl)-3-(3-(tert-butyl)-1-(1-(2-hydroxyethyl)-6-oxo-1,6-dihydropyridin-3-yl)-1H-pyrazol-5-yl)urea] | 8.3 | −ve (−ve and +ve indicate that the value is below and above respectively, the no significant effect threshold, defined as 30% inhibition at 1 μg/mL at the time point indicated.) | −ve (−ve and +ve indicate that the value is below and above respectively, the no significant effect threshold, defined as 30% inhibition at 1 μg/mL at the time point indicated.)
98 | 23 | 28 | > 9230 | 12.6 | 16.8 | CC(C)(C)c1cc(NC(=O)Nc2ccc(Oc3ccnc(Nc4ccc5c(c4)CCC5)n3)c3ccccc23)n(-c2ccc(OCCN3CCOCC3)cc2)n1 [Example 59, 1-(3-(tert-butyl)-1-(4-(2-morpholinoethoxy)phenyl)-1H-pyrazol-5-yl)-3-(4-((2-((2,3-dihydro-1H-inden-5-yl)amino)pyrimidin-4-yl)oxy)naphthalen-1-yl)urea] | 0.1 | −ve (−ve and +ve indicate that the value is below and above respectively, the no significant effect threshold, defined as 30% inhibition at 1 μg/mL at the time point indicated.) | −ve (−ve and +ve indicate that the value is below and above respectively, the no significant effect threshold, defined as 30% inhibition at 1 μg/mL at the time point indicated.)
